From US5786335A, “Sulfhydryl containing peptides for treating vascular disease” (Warner-Lambert Company, priority 1996, dated 1998)
Residues, ends and D or L forms follow the SMILES beside them. No end group written: not given here.

Target: Lp(a) formation (coupling between apo(a) and LDL) (Homo sapiens, UniProt P08519)
Experiment: in vitro Lp(a) formation assay: coupling of recombinant human apo(a) with LDL, western blot with densitometry or visual inspection
Format: biochemical
Design: key to Relative Activity: An easily detectable change from control was assigned as (+); a marked change from control was assigned as (++)
Conditions: for inhibition at 125 µM: 125 μM peptide, densitometry of Lp(a) bands; for inhibition at 125 µM / IC50: 37° C. for 30 minutes; for IC50: western blot, read-out: IC50 (concentration required to inhibit 50% of Lp(a) formation)
Procedure: As pointed out above, the peptides of this invention are useful for treating vascular diseases due to their ability to inhibit formation of Lp(a). The compounds have been evaluated in an in vitro assay which established that the subject compounds are potent inhibitors of Lp(a) formation. The assay was carried out by mixing approximately equal quantities of recombinant human apo(a) with low-density lipoprotein (LDL) in a […] microcentrifuge tube. Control vessels contained no invention peptide, whereas test vessels contained a peptide of Formula I. The mixtures were incubated at 37° C. for 30 minutes. The coupling between apo(a) and LDL was quenched by addition of sodium dodecylsulfate (SDS)-PAGE loading buffer. The mixture is next resolved on 4% polyacrylamide gels, and Lp(a) is detected by western blotting using a monospecific human Lp(a) antibody. The intensity of the Lp(a) bands on the blots is measured by a commercial densitometer.
Table I below gives the percent inhibition of Lp(a) formation at 125 μM concentration of representative peptides of the invention, as well as the concentration of representative compounds required to inhibit 50% of Lp(a) formation (IC50).
Additional compounds were evaluated in the above assay, and the western blots were visually inspected for changes in Lp(a) particle formation as a consequence of peptide mediated inhibition. Experimental lanes were visually compared to control lanes and assessed as follows: An easily detectable change from control was assigned as (+); a marked change from control was assigned as (++).

Sequence of Lp(a) formation (coupling between apo(a) and LDL) (P08519 20-2040): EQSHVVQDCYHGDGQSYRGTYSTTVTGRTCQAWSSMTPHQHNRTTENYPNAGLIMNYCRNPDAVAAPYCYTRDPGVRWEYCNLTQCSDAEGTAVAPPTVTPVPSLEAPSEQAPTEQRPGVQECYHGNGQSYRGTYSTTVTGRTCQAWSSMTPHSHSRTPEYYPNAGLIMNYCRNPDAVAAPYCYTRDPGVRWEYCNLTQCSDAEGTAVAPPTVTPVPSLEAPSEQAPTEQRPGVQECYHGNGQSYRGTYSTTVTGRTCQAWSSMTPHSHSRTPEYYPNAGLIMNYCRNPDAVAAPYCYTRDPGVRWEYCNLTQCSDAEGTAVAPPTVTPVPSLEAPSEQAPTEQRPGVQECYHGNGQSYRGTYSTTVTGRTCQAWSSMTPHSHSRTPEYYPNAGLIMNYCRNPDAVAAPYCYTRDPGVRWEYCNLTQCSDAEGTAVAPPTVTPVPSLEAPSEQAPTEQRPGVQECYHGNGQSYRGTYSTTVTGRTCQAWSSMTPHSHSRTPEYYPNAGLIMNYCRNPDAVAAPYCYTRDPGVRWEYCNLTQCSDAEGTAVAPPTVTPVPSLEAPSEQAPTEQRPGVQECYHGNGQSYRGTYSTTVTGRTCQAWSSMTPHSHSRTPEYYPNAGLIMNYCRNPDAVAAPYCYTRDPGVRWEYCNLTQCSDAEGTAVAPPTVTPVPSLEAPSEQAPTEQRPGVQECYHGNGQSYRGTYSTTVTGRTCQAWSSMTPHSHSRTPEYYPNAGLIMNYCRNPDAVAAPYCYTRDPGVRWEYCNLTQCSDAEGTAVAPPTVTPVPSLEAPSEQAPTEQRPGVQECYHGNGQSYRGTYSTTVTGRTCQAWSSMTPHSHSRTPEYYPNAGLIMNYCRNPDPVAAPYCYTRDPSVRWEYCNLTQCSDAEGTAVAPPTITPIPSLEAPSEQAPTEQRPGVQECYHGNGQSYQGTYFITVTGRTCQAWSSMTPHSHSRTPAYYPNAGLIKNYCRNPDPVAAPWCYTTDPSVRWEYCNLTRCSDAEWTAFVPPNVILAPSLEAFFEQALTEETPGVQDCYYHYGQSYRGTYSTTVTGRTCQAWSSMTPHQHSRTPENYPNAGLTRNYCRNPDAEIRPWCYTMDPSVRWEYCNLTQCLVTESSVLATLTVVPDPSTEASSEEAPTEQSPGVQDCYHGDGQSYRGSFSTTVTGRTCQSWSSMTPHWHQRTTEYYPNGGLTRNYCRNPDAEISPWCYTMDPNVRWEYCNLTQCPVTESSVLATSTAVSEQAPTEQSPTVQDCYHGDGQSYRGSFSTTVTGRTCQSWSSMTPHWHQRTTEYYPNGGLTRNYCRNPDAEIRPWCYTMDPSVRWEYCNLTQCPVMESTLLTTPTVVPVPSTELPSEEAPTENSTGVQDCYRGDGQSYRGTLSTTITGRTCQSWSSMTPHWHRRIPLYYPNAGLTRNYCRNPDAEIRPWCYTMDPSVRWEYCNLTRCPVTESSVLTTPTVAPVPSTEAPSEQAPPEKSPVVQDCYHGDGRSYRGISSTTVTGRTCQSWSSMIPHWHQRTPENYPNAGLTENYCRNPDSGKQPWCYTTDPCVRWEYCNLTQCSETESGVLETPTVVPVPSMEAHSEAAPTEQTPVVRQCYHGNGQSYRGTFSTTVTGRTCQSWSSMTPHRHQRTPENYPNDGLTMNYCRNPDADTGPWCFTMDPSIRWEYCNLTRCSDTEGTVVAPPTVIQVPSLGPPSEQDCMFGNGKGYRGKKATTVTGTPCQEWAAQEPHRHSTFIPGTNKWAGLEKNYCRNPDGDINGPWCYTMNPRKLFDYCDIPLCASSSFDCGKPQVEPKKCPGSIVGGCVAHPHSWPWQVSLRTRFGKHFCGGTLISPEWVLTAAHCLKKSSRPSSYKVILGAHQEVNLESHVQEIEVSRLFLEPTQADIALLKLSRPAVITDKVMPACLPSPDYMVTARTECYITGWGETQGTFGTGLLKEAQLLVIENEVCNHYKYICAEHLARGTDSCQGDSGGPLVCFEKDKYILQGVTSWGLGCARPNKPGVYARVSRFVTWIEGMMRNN

Compound	inhibition at 125 µM	IC50	Relative Activity (western blots visually inspected, experimental lanes compared to control lanes)
NCCCC[C@H](NC(=O)[C@H](Cc1ccc(O)cc1)NC(=O)[C@@H](N)CS)C(=O)O [Cys--Tyr--Lys] (H-Cys-Tyr-Lys-OH)	90%	50 µM	–
IQCYK [Ile--Gln--Cys--Tyr--Lys, Ile-Gln-Cys-Tyr-Lys]	50.1%	109 µM	–
CC(=O)N[C@@H](CS)C(=O)N[C@@H](Cc1ccc(O)cc1)C(=O)N[C@@H](CCCCN)C(N)=O [Ac--Cys--Tyr--Lys--NH2] (Ac-Cys-Tyr-Lys-NH2)	–	–	+
IQCAK [Ile--Gln--Cys--Ala--Lys]	76.4%	–	–
IACYK [Ile--Ala--Cys--Tyr--Lys]	29.8%	–	–
AQCYK [Ala--Gln--Cys--Tyr--Lys]	36.9%	–	–
